Measured values published in paper PMC11167047 (Cell Death Discovery, 2024).

Tests used:
Test in all cases: kinome screen (33PanQinase)
Assay type in all cases: biochemical
[1] = molecular target: T1, MEKK2 (Homo sapiens, UniProt Q9Y2U5)
T1 construct: purchased Reaction Biology Europe GmbH (formerly ProQinase)
T1 sequence (Q9Y2U5 1-619): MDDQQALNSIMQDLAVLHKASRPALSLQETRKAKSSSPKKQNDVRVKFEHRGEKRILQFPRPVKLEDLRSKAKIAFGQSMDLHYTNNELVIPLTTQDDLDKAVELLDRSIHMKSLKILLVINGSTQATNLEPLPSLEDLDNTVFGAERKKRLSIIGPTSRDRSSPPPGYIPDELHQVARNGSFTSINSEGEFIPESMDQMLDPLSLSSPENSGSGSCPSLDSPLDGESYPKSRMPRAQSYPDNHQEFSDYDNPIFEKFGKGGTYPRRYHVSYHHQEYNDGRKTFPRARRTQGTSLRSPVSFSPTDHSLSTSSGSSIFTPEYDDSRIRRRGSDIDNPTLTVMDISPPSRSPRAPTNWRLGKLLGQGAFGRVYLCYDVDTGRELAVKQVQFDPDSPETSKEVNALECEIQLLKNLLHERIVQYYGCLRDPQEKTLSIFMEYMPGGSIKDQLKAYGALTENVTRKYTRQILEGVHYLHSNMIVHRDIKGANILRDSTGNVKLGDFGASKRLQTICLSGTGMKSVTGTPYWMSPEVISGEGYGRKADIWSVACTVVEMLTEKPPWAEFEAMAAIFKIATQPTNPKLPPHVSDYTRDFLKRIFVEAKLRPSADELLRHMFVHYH
Description: (§1) The Kinome Screening was performed by Reaction Biology Europe GmbH (http://reactionbiology.com; Freiburg i. Br., Germany).

[2] = molecular target: T2, ERK7 (Homo sapiens, UniProt Q8TD08)
T2 construct: purchased Reaction Biology Europe GmbH (formerly ProQinase)
T2 sequence (Q8TD08 1-544): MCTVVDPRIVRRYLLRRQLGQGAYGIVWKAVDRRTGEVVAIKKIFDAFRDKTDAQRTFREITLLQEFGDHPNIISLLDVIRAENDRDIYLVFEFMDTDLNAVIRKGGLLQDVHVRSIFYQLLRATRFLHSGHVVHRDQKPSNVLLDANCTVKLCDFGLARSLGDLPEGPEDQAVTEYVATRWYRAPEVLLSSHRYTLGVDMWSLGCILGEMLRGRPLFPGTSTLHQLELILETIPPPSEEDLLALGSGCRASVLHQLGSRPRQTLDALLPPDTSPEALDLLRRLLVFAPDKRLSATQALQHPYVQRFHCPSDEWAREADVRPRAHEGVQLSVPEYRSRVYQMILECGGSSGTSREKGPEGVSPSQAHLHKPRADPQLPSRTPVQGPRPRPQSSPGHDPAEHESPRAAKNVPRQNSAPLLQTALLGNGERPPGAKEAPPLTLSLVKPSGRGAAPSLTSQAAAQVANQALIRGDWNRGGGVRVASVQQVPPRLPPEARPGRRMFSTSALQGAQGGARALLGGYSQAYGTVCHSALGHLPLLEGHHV
Description: as §1

[3] = molecular target: T3, LIMK2 (Homo sapiens, UniProt P53671)
T3 construct: purchased Reaction Biology Europe GmbH (formerly ProQinase)
T3 sequence (P53671 whole entry): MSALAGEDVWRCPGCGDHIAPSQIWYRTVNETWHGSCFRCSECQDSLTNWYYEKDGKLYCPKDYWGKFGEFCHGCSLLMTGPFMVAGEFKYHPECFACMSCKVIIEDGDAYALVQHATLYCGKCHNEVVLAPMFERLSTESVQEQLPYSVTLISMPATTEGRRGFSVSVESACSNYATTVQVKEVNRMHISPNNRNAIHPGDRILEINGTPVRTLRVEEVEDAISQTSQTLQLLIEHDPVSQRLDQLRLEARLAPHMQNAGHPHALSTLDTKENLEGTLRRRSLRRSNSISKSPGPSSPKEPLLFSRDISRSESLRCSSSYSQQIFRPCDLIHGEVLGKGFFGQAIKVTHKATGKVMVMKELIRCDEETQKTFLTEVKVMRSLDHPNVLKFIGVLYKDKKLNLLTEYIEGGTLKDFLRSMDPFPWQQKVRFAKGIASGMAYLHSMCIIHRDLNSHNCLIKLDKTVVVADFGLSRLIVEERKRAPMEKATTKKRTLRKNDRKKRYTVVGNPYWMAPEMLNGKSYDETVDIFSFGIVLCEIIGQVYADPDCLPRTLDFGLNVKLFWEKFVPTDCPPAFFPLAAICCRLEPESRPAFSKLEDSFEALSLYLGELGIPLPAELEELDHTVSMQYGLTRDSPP
Description: as §1

[4] = molecular target: T4, EPHA4 (Homo sapiens, UniProt P54764)
T4 construct: purchased Reaction Biology Europe GmbH (formerly ProQinase)
T4 sequence (P54764 20-986): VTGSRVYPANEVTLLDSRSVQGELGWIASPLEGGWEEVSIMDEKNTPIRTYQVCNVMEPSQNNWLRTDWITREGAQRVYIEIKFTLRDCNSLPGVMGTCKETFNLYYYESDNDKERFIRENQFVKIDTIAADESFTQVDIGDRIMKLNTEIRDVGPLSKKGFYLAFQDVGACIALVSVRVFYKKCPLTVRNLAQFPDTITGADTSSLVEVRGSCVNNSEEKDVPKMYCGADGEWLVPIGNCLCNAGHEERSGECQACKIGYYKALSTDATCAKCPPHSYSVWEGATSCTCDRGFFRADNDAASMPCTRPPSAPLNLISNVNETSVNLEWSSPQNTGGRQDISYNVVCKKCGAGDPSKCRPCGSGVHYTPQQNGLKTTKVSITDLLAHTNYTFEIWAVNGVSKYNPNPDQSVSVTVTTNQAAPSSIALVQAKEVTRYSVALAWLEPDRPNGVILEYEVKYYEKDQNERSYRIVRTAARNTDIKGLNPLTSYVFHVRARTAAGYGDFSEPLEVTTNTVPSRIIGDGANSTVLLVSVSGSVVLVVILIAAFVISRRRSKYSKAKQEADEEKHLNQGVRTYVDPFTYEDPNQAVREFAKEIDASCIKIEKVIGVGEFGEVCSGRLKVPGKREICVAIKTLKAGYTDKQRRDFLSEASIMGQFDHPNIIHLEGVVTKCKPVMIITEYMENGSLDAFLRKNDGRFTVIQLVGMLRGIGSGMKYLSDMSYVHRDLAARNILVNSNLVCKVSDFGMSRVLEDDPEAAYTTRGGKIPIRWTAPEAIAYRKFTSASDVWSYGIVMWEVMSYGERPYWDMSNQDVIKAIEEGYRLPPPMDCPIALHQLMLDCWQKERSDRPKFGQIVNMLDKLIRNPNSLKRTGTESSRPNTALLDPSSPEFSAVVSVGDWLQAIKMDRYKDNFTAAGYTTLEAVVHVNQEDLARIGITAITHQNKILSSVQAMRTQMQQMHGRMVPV
Description: as §1

[5] = molecular target: T5, p38γ (Homo sapiens, UniProt P53778)
T5 construct: purchased Reaction Biology Europe GmbH (formerly ProQinase)
T5 sequence (P53778 1-367): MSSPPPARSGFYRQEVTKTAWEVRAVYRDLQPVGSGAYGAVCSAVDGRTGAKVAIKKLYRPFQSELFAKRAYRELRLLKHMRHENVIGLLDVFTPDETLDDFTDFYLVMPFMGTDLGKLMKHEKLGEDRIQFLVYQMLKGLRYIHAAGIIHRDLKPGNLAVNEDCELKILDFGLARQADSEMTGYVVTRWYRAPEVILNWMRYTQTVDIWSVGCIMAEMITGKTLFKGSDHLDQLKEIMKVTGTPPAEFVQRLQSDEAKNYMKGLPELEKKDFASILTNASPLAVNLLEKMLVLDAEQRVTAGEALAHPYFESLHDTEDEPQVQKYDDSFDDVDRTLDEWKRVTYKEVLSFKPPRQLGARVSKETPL
Description: as §1

[6] = molecular target: T6, IKKβ (Homo sapiens, UniProt O14920)
T6 construct: purchased Reaction Biology Europe GmbH (formerly ProQinase)
T6 sequence (O14920 1-756): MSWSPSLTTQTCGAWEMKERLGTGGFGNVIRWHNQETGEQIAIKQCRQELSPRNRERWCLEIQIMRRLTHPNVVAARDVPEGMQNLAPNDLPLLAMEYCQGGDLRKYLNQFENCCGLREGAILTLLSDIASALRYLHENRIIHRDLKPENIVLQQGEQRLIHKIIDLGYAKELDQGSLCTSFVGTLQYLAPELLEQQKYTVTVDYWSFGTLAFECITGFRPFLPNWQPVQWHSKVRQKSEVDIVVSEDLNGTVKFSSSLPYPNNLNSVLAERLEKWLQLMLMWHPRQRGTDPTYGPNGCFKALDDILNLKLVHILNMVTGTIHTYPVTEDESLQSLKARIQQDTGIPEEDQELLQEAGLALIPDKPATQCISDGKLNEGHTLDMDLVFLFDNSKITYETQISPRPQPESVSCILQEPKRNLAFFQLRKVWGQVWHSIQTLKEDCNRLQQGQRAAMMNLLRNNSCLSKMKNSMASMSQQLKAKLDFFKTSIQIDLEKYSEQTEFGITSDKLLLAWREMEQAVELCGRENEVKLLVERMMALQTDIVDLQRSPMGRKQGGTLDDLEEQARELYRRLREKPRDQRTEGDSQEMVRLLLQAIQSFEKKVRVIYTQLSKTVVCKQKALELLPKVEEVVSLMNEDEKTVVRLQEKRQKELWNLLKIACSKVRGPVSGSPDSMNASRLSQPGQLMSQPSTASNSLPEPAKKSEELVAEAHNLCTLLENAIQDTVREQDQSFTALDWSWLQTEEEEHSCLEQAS
Description: as §1

[7] = molecular target: T7, CSF1R (Homo sapiens, UniProt P07333)
T7 construct: purchased Reaction Biology Europe GmbH (formerly ProQinase)
T7 sequence (P07333 20-972): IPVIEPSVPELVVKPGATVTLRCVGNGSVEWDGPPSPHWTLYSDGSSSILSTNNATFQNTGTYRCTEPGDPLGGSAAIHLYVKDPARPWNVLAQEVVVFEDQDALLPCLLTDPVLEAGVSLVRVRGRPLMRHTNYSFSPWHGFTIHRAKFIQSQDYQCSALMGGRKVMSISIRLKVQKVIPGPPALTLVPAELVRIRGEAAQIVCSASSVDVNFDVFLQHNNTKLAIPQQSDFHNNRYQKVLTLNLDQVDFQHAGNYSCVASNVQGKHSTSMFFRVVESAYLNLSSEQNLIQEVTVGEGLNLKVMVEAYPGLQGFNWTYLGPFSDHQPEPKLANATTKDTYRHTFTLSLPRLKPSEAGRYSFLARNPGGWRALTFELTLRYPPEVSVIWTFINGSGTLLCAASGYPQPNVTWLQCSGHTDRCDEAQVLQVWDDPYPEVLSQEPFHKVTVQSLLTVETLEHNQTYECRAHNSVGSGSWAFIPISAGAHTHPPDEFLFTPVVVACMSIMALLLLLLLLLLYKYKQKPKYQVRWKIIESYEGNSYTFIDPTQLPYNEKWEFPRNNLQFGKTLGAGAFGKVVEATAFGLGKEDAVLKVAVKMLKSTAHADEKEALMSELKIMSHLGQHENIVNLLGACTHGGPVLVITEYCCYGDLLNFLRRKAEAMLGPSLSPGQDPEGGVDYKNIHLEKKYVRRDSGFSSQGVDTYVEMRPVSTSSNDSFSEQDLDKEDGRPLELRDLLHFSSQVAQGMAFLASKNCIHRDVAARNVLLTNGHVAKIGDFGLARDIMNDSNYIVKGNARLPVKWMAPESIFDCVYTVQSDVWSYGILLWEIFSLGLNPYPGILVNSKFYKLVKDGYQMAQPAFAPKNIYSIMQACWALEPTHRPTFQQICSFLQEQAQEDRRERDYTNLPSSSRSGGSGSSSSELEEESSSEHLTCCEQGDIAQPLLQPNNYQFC
Description: as §1

SMILES | residual kinase activity ([1]; 0.3 µM) | residual kinase activity ([2]; 0.3 µM) | residual kinase activity ([3]; 0.3 µM) | residual kinase activity ([4]; 0.3 µM) | residual kinase activity ([5]; 0.3 µM) | residual kinase activity ([6]; 0.3 µM) | residual kinase activity ([7]; 0.3 µM) | further results
COc1ccnc2[nH]cc(-c3cc(N)nc(N)c3)c12 [meriolin 16] | 91 % of control | 59 % of control | 101 % of control | 85 % of control | 8 % of control | 64 % of control | 88 % of control | residual kinase activity ([1]; 0.03 µM): 95 % of control; residual kinase activity ([2]; 0.03 µM): 86 % of control; residual kinase activity ([3]; 0.03 µM): 106 % of control; residual kinase activity ([4]; 0.03 µM): 105 % of control; residual kinase activity ([5]; 0.03 µM): 56 % of control; residual kinase activity ([6]; 0.03 µM): 85 % of control; residual kinase activity ([7]; 0.03 µM): 90 % of control
c1ccc(CNc2cc(-c3c[nH]c4ncccc34)ccn2)cc1 [meriolin 36] | 66 % of control | 7 % of control | 70 % of control | 93 % of control | 64 % of control | 80 % of control | 33 % of control | residual kinase activity ([1]; 3 µM): 18 % of control; residual kinase activity ([2]; 3 µM): -3 % of control; residual kinase activity ([3]; 3 µM): 27 % of control; residual kinase activity ([4]; 3 µM): 72 % of control; residual kinase activity ([5]; 3 µM): 19 % of control; residual kinase activity ([6]; 3 µM): 36 % of control; residual kinase activity ([7]; 3 µM): 14 % of control
